# Values joined by “and” are separate entries in the source; they are usually repeats but may differ in a detail not shown here. Identical values can stand only once.
# How the values were obtained:
# Experiment in all cases: ≥ marks a high value that may be exact or a test limit, other limits are often not marked, values filed in µg/mL are converted to µM
# [1] = test system: Peptostreptococcus anaerobius
# [2] = test system: Salmonella enterica subsp. enterica serovar Typhimurium LT2
# [3] = test system: Pseudomonas aeruginosa CGMCC 1.2421
# Bacteroides fragilis = test system: Bacteroides fragilis
# [4] = test system: Bacillus subtilis CGMCC 1.3376
# Cutibacterium acnes = test system: Cutibacterium acnes
# Acinetobacter baumannii = test system: Acinetobacter baumannii
# [5] = test system: Peptoniphilus asaccharolyticus ATCC 29743
# [6] = test system: Staphylococcus epidermidis CGMCC 1.4260
# [7] = test system: Cutibacterium acnes ATCC 11828
# [8] = test system: Staphylococcus epidermidis RP62A
# Clostridium septicum = test system: Clostridium septicum
# [9] = test system: Staphylococcus aureus T58/7
# [10] = test system: Fusobacterium varium ATCC 27725
# [11] = test system: Bacteroides fragilis ATCC 25285
# [12] = test system: Escherichia coli ATCC 25922
# [13] = test system: Enterobacter cloacae HNTCC 53001
# [14] = test system: Staphylococcus aureus T27/9
# [15] = test system: Prevotella melaninogenica
# [16] = test system: Escherichia coli CGMCC 1.8732
# Fusobacterium nucleatum = test system: Fusobacterium nucleatum
# [17] = test system: Enterococcus faecalis ATCC 29212
# [18] = test system: Klebsiella pneumoniae CGMCC 1.1736
# [19] = test system: Klebsiella pneumoniae KK3 9904
# [20] = test system: Staphylococcus aureus T7/5
# [21] = test system: Proteus mirabilis ATCC 25933
# [22] = test system: Staphylococcus aureus CGMCC 1.8721
# [23] = test system: Staphylococcus aureus NCTC 8325
# [24] = test system: Candida albicans ATCC 90028
# [25] = test system: Clostridium perfringens ATCC 10543
# [26] = test system: Clostridium tertium ATCC 19465
# [27] = test system: Pseudomonas aeruginosa ATCC 27853
# [28] = test system: Batrachochytrium dendrobatidis
# [29] = test system: Staphylococcus aureus ATCC 25923
# [30] = test system: Staphylococcus aureus CIB 85462
# [31] = test system: Escherichia coli ATCC 25726
# [32] = test system: Candida albicans CIB 45437
# [33] = test system: Escherichia coli CIB 84492
# Escherichia coli = test system: Escherichia coli
# Klebsiella pneumoniae = test system: Klebsiella pneumoniae
# Bacillus megaterium Bm11 = test system: Bacillus megaterium Bm11
# [34] = test system: Staphylococcus haemolyticus
# [35] = test system: Staphylococcus epidermidis LT1324
# Micrococcus luteus = test system: Micrococcus luteus
# [36] = test system: Stenotrophomonas maltophilia
# Citrobacter freundii = test system: Citrobacter freundii
# [37] = test system: Staphylococcus aureus LT1334
# [38] = test system: Salmonella enterica subsp. enterica serovar Typhimurium ATCC 14028
# Candida albicans = test system: Candida albicans
# Staphylococcus simulans = test system: Staphylococcus simulans
# [39] = test system: Staphylococcus aureus LT1338
# [40] = test system: Staphylococcus aureus 710A
# Staphylococcus aureus = test system: Staphylococcus aureus
# Escherichia coli ML-35 = test system: Escherichia coli ML-35
# Pseudomonas aeruginosa = test system: Pseudomonas aeruginosa
# Enterococcus faecium = test system: Enterococcus faecium
compound,measurement,setting,value
CC[C@H](C)[C@H](NC(=O)[C@H](C)N)C(=O)NCC(=O)N[C@@H](CO)C(=O)N[C@H](C(=O)N[C@@H](CC(C)C)C(=O)NCC(=O)N[C@@H](C)C(=O)N[C@@H](CC(C)C)C(=O)N[C@@H](C)C(=O)N[C@@H](CCCCN)C(=O)NCC(=O)N[C@@H](CC(C)C)C(=O)N1CCC[C@H]1C(=O)N[C@H](C(=O)N[C@@H](CC(C)C)C(=O)N[C@H](C(=O)N[C@@H](CO)C(=O)N[C@@H](Cc1c[nH]c2ccccc12)C(=O)N[C@H](C(=O)N[C@@H](CCCCN)C(=O)N[C@@H](CC(N)=O)C(=O)N[C@@H](CCCN=C(N)N)C(N)=O)[C@@H](C)CC)[C@@H](C)CC)[C@@H](C)O)[C@@H](C)CC [AIGSILGALAKGLPTLISWIKNR],MIC,[1],25 µM
same,MIC,[2],≥ 50 µM
same,MIC,[3],12.5 µM
same,MIC,Bacteroides fragilis,≥ 50 µM
same,MIC,[4],3.13 µM
same,MIC,Cutibacterium acnes,25 µM
same,MIC,Acinetobacter baumannii,12.5 µM
same,MIC,[5],≥ 50 µM
same,MIC,[6],3.13 µM
same,MIC,[7],12.5 µM
same,MIC,[8],3 µM
same,MIC,Clostridium septicum,12.5 µM
same,MIC,[9],20 µM
same,MIC,[10],≥ 50 µM
same,MIC,[11],≥ 50 µM
same,MIC,[12],20 µM and 12.5 µM
same,MIC,[13],12.5 µM
same,MIC,[14],5 µM
same,MIC,[15],3 µM
same,MIC,[16],25 µM
same,MIC,Fusobacterium nucleatum,≥ 50 µM
same,MIC,[17],6 µM
same,MIC,[18],12.5 µM
same,MIC,[19],≥ 50 µM
same,MIC,[20],2.5 µM
same,MIC,[21],≥ 100 µM
same,MIC,[22],6.25 µM
same,MIC,[23],3.5 µM and 6 µM
same,MIC,[24],19 µM and 12.5 µM
same,MIC,[25],≥ 50 µM
same,MIC,[26],12.5 µM
same,MIC,[27],25 µM
same,MIC,[28],25 µM
CC[C@H](C)[C@@H]1NC(=O)[C@H](C)NC(=O)[C@@H](NC(=O)[C@H](Cc2ccccc2)NC(=O)[C@@H](NC(=O)[C@@H](NC(=O)[C@@H]2CCCN2C(=O)[C@@H](NC(=O)[C@@H](NC(=O)[C@H](CCC(N)=O)NC(=O)[C@H](C)NC(=O)[C@H](C)NC(=O)[C@@H](NC(=O)[C@H](CCCN=C(N)N)NC(=O)[C@H](CC(C)C)NC(=O)[C@@H](NC(=O)[C@H](C)NC(=O)[C@@H]2CCCN2C(=O)[C@H](CC(C)C)NC(=O)[C@@H](N)Cc2ccccc2)C(C)C)C(C)C)C(C)C)C(C)C)[C@@H](C)O)C(C)C)CSSC[C@@H](C(=O)O)NC(=O)[C@H](CCCCN)NC(=O)[C@H](CCCCN)NC(=O)[C@H](CO)NC1=O [FLPAVLRVAAQVVPTVFCAISKKC],MIC,[29],3.12 µM
same,MIC,[30],12.5 µM
same,MIC,[12],50 µM
same,MIC,[31],≥ 48.8 µM
same,MIC,[32],≥ 50 µM
same,MIC,[33],25 µM
CC[C@H](C)[C@H](NC(=O)[C@H](CCCN=C(N)N)NC(=O)[C@H](C)NC(=O)[C@H](CC(C)C)NC(=O)[C@H](CCCN=C(N)N)NC(=O)CNC(=O)[C@H](Cc1ccccc1)NC(=O)[C@@H](NC(=O)[C@H](CO)NC(=O)CNC(=O)[C@H](CC(C)C)NC(=O)CN)C(C)C)C(=O)N[C@@H](CC(C)C)C(=O)NCC(=O)N[C@@H](CCCN=C(N)N)C(=O)N[C@H](C(=O)N[C@H](C(=O)N1CCC[C@H]1C(=O)N[C@@H](CCCCN)C(=O)N[C@H](C(N)=O)C(C)C)[C@@H](C)CC)C(C)C [GLGSVFGRLARILGRVIPKV],MIC,Escherichia coli,2.83 µM
same,MIC,Klebsiella pneumoniae,2 µM
same,MIC,Bacillus megaterium Bm11,2 µM
same,MIC,[34],2 µM
same,MIC,[35],2 µM
same,MIC,Micrococcus luteus,0.5 µM
same,MIC,[36],2 µM
same,MIC,Citrobacter freundii,2 µM
same,MIC,[37],1.5 µM
same,MIC,[38],8 µM
same,MIC,Candida albicans,> 4 µM
same,MIC,Staphylococcus simulans,2 µM
same,MIC,[39],3 µM
same,MIC,[40],4 µM
same,MIC,Staphylococcus aureus,2 µM
same,MIC,Escherichia coli ML-35,2 µM
same,MIC,Pseudomonas aeruginosa,4 µM
same,MIC,Enterococcus faecium,2 µM
same,MIC,[27],8 µM

# Reference: DBAASP
